Source: article doi:10.1101/442434v2 (biorxiv, 2018)
Each block holds one molecule with its values, some of them ahead of it.

Legend:
[1] = target: T1, AtG6PDH3 (Arabidopsis thaliana, UniProt Q8L743); experiment: spectrophotometric NADPH formation assay; format: biochemical
T1 sequence (Q8L743 1-599 limits assumed): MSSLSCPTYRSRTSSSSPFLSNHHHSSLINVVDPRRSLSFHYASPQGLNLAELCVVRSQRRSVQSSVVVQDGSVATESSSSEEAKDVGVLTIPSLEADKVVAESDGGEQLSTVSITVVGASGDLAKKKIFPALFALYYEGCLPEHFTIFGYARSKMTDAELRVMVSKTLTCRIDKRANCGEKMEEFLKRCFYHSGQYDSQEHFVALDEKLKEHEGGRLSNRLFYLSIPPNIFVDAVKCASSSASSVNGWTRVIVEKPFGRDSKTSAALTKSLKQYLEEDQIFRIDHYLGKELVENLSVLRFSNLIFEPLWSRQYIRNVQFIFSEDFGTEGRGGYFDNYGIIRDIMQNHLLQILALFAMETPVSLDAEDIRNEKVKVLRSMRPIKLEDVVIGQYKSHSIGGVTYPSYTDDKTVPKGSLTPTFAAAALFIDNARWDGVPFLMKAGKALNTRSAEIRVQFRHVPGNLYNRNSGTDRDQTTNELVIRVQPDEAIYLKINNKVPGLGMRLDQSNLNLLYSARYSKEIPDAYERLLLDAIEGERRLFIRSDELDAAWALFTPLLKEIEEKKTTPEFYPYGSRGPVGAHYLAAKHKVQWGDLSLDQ

[2] = target: T2, AtG6PDH1 (Arabidopsis thaliana, UniProt Q43727); experiment: spectrophotometric NADPH formation assay; format: biochemical
T2 sequence (Q43727 1-576 limits assumed): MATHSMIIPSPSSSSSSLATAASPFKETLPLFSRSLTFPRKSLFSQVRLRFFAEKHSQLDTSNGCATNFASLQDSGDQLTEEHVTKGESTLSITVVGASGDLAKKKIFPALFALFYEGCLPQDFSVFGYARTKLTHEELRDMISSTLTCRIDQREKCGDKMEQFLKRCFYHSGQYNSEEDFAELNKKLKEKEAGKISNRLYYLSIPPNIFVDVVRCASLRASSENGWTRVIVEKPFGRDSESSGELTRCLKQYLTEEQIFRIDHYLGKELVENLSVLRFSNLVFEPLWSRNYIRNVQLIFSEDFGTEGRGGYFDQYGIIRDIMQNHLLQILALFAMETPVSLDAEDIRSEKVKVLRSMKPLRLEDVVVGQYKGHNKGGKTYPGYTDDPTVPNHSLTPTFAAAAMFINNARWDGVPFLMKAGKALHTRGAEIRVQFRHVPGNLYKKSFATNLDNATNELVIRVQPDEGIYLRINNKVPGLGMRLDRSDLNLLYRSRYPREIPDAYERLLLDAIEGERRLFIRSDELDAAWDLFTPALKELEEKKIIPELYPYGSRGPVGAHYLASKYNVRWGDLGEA

[3] = target: T3, AtG6PDH2 (Arabidopsis thaliana, UniProt Q9FY99); experiment: spectrophotometric NADPH formation assay; format: biochemical
T3 sequence (Q9FY99 1-596 limits assumed): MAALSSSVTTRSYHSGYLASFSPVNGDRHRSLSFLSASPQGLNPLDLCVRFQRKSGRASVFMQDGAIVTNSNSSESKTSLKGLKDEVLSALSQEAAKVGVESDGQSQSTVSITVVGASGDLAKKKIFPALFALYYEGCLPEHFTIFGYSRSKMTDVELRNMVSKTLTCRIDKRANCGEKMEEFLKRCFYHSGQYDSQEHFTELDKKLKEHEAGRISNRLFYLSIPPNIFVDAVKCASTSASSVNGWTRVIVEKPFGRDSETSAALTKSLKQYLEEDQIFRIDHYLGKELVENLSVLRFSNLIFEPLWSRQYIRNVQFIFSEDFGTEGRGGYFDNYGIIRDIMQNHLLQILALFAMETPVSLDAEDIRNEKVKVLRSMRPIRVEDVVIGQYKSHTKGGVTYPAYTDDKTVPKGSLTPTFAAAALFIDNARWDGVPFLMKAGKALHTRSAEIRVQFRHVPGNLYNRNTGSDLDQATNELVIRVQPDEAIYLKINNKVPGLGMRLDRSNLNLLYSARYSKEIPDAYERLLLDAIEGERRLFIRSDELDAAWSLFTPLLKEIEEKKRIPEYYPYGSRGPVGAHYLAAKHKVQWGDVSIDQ

[4] = target: T4, cytosolic AtPGI (Arabidopsis thaliana, UniProt P34795); experiment: coupled spectrophotometric assay; format: biochemical
T4 sequence (P34795 1-560): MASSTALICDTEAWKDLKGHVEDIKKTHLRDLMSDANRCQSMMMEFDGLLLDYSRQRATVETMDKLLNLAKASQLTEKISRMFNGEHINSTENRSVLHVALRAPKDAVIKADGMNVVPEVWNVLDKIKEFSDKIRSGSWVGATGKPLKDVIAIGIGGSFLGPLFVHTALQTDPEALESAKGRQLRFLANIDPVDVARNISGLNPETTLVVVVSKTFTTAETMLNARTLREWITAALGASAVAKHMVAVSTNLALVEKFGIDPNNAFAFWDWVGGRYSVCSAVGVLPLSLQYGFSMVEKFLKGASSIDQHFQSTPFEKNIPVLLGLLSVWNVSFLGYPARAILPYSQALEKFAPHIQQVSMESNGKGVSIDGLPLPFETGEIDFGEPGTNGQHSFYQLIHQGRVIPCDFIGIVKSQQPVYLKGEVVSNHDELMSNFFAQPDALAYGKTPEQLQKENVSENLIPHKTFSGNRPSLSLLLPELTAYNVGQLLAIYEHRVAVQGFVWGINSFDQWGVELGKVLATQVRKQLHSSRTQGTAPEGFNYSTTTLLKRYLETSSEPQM

[5] = target: T4, cytosolic AtPGI; experiment: biochemical
[6] = target: T5, plastidic AtPGI (Arabidopsis thaliana, UniProt Q8H103); experiment: coupled spectrophotometric assay; format: biochemical
T5 sequence (Q8H103 49-613): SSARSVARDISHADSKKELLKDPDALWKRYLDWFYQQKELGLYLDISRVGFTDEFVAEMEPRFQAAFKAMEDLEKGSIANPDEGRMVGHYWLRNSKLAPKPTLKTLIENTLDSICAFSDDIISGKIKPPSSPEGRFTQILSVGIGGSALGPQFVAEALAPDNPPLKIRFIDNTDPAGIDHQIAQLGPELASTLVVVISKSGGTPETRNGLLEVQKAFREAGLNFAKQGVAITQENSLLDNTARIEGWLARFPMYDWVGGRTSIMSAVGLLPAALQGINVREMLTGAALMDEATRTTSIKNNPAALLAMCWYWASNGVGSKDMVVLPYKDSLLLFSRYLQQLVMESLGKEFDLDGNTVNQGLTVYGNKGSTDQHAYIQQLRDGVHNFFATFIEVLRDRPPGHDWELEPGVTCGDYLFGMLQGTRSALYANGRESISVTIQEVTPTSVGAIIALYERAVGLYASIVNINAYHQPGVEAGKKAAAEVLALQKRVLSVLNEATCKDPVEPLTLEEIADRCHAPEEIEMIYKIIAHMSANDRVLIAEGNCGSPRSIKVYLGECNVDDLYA

[7] = target: T5, plastidic AtPGI; experiment: biochemical
[8] = target: T1, AtG6PDH3; experiment: spectrophotometric NADPH formation assay; format: biochemical; conditions: substrate inhibition; 0.6 mM NADP+; 150 mM Hepes pH 7.2
[9] = target: T2, AtG6PDH1; experiment: spectrophotometric NADPH formation assay; format: biochemical; conditions: substrate inhibition; 0.6 mM NADP+; 150 mM Hepes pH 7.2
[10] = target: T3, AtG6PDH2; experiment: spectrophotometric NADPH formation assay; format: biochemical; conditions: substrate inhibition; 0.6 mM NADP+; 150 mM Hepes pH 7.2
[11] = substrate: NC(=O)c1ccc[n+]([C@@H]2O[C@H](COP(=O)(O)OP(=O)(O)OC[C@H]3O[C@@H](n4cnc5c(N)ncnc54)[C@H](OP(=O)(O)O)[C@@H]3O)[C@@H](O)[C@H]2O)c1; experiment: purified protein; conditions: 150 mM Hepes pH 7.2, varied: cofactor

Ki [1]: 112 µM
Ki [2]: 59 µM
Ki [3]: 0.9 µM
Molecule: NC(=O)C1=CN([C@@H]2O[C@H](COP(=O)(O)OP(=O)(O)OC[C@H]3O[C@@H](n4cnc5c(N)ncnc54)[C@H](OP(=O)(O)O)[C@@H]3O)[C@@H](O)[C@H]2O)C=CC1 [NADPH]

Ki [4]: 1.5 µM
Ki [5]: 3.7 µM
Ki [6]: 2.3 µM
Ki [7]: 6 µM
Molecule: O=C[C@H](O)[C@H](O)COP(=O)(O)O [erythrose 4-phosphate]

G6P Ki [8]: 37000 µM
G6P Ki [9]: 18900 µM
G6P Ki [10]: 30000 µM
Molecule: O=P(O)(O)OC[C@H]1OC(O)[C@H](O)[C@@H](O)[C@@H]1O (stereo partly shown) [glucose 6-phosphate]

Ki [4]: 106 µM
Ki [5]: 44 µM
Ki [6]: 31 µM
Molecule: O=C(O)[C@H](O)[C@@H](O)[C@H](O)[C@H](O)COP(=O)(O)O [6-phosphogluconic acid]

Continued, molecule first:

B1: AtG6PDH3 (Arabidopsis thaliana) (protein)
chain: T1 sequence (Q8L743 1-599 limits assumed)
Km ([11]; 7.6 mM G6P): 0.6 µM
kcat ([11]; 7.6 mM G6P): 14.6 s⁻¹

B2: AtG6PDH2 (Arabidopsis thaliana) (protein)
chain: T3 sequence (Q9FY99 1-596 limits assumed)
Km ([11]; 15.4 mM G6P): 1.3 µM
kcat ([11]; 15.4 mM G6P): 39.4 s⁻¹

B3: AtG6PDH1 (Arabidopsis thaliana) (protein)
chain: T2 sequence (Q43727 1-576 limits assumed)
Km ([11]; 7.6 mM G6P): 0.7 µM
kcat ([11]; 7.6 mM G6P): 57.0 s⁻¹
